{"source": "paper PMC1166555", "about": "“The therapeutic effect of the neuropeptide hormone somatostatin on Schistosoma mansoni caused liver fibrosis” (BMC Infectious Diseases, 2005)", "key": {"[1]": {"details": "cited from earlier work"}, "[2]": {"assay": "Circulating somatostatin levels in plasma at sacrifice, one week after therapy (RIA)", "type": "in vivo, Swiss mice", "details": "for level at 168 h: Swiss, mouse, plasma", "description": "(§1) Groups of Swiss mice were infected with 100 S. mansoni cercariae each as mentioned above. Age matched mice were maintained as uninfected control animals. Groups of 10 mice composed Group 1 that were maintained till 10 weeks following infection, other 10 mice composed Group 2 that were maintained till 14 weeks of infection.\n(§2) At such times animals of Groups 1 and 2 were treated with somatostatin (Somatostatine-ucb®), that was kindly gifted by UCB Pharma, Brussels. Somatostatin was administered in two regimens – a one-day treatment or a two-day treatment. One day treatment consisted of 3 doses of 30 μg somatostatin each, two day treatment was the double of this dose, that is 6 doses of 30 μg somatostatin to each animal. Somatostatin was administered intravenously via the caudal vein in the tail and intraperitoneally at regular intervals during the day. One week after the last somatostatin administration, mice were killed, the weight of the animal, liver and spleen were noted, plasma was extracted and stored as mentioned above, and the liver frozen immediately in liquid nitrogen and then at -80°C. The overall planning is depicted in Table 1. Untreated animals of the acute and chronic stage were also sacrificed at the respective times together with their treated counterparts. Research protocols involving rodents received ethical clearance by the University of Antwerp ethical committee.\n(§3) The measurement of somatostatin concentrations in the Swiss mice plasma was carried out in the laboratory of Gastro-intestinal Hormones, at Gasthuisberg, K.U. Leuven, by means of a radio-immuno assay (RIA). The RIA was performed by incubating the samples with 1.7 pM 3-[^125I] iodotyrosyl^11 somatostatin-14 (specific activity 2000 Ci/mmol, Amersham Pharmacia Biotech, Buckinghamshire, UK) and a rabbit antibody against human SOM [1-14] in a 50 mM sodium phosphate buffer (pH 7.4, 0.25% EDTA, 0.5% charcoal-BSA, 500 U/ml Trasylol) for at least two days at 4°C. At the end of the incubation period the SOM bound to the antibody was separated from the free SOM by adding 500 μl dextran-charcoal followed by centrifugation for 15 min at 3000 rpm. Both fractions were counted in a gamma counter and the results were read from a standard curve (0–250 pg/ml) included in the RIA. The minimal detectable dose was 2.5 pg/ml."}, "[3]": {"assay": "Toxicity of somatostatin administration in the study mice", "type": "in vivo", "details": "Swiss mice, 90 μg/24 hours, mice about 40 g", "description": "as §2\nThe favorable metabolic profile of somatostatin is further supported by the fact that this compound has a very short half-life, and thus any undesirable effects may be rapidly reversed. In our experiment we have used 90 μg/24 hours in the Swiss mice that weighs about 40 g. […]"}, "[4]": {"details": "studies in mice; cited from earlier work", "description": "The favorable metabolic profile of somatostatin is further supported by the fact that this compound has a very short half-life, and thus any undesirable effects may be rapidly reversed. In our experiment we have used 90 μg/24 hours in the Swiss mice that weighs about 40 g. In humans the therapeutic dose is 3.5 μg/kg/hour or 6 mg/24 h for a 75 kg person. A comparison of these values tells ..."}, "[5]": {"assay": "Liver, spleen and total body weight after somatostatin treatment", "type": "in vivo, Swiss mice", "description": "as §1, §2\nAll animals of Groups I and II were controlled for liver, spleen and total body weight, before sacrifice. The adult worms were recovered from the hepatic portal system and the liver by perfusion with citrate saline (0.85% sodium chloride; 1.5% sodium citrate). The livers were cut out and snap frozen in liquid nitrogen. For cyosectioning, liver fragments were embedded in Tissue-Tek OCT compound, 4 μm thick transverse sections were cut on a cryostat, mounted on slides coated with 0.1% ploy-L-lysine and stored at -20°C until use. To study parasite egg count, hepatocyte status, granuloma size and cellularity, series of sections were stained with Haematoxylin-eosin stain."}, "[6]": {"details": "dogs, animal studies; cited from earlier work", "description": "Somatostatin has a very short half-life of 1–3 minutes in man. […] To determine the pharmacokinetic profile in outbred Swiss mice, 25 μg of somatostatin was administered per mouse via th ..."}, "[7]": {"assay": "Pharmacokinetic profile of somatostatin in outbred Swiss mice (plasma, RIA)", "type": "in vivo", "details": "male Swiss mice; for level at 10 min: Swiss (outbred), 25 ug per mouse, 10 minutes post injection, plasma", "description": "Separate groups of male Swiss mice were injected with 25 μg of somatostatin (somatostatin-ucb®, UCB Pharma, Brussels) intraperitoneally (in the abdomen) or intravenously (in the caudal vein in the tail). At defined moments after injection (10, 20, 40, 60 minutes) the animals were anaesthetized with Nembutal® (60 mg/kg). The thoracic cavity was cut open and blood collected from the right ventricle of the heart into chilled syringes containing EDTA (1 mg/ml) and Aprotinin (500 KIU/ml blood). The collected blood was centrifuged at 3000 rpm for 15 minutes at 0°C. The plasma was immediately frozen at -80°C freezer. Untreated naïve mice were also bled to ascertain background levels of somatostatin.\nas §3\nSomatostatin has a very short half-life of 1–3 minutes in man. […] To determine the pharmacokinetic profile in outbred Swiss mice, 25 μg of somatostatin was administered per mouse via the intraperitoneal or intravenous route. To assess the break down in these mice, plasma was collected at regular time intervals and circulating somatostatin levels assayed (Figure 2). At 10 minutes post injection somatostatin levels fall to 30233 pg/ml (IP) and 17413 pg/ml (IV)."}, "[8]": {"details": "rats; cited from earlier work"}, "[9]": {"test_system": "S. mansoni", "details": "S. mansoni infected animals; cited from earlier work", "text": "Taken together we have elucidated the therapeutic capacity of somatostatin in reducing hepatic fibrosis. This report in fact confirms a previous report by Mansy, where using a somatostatin synthetic analog octreotide in S. mansoni infected animals, a reduction in hepatic fibrosis was noted. Since octreotide is limited in binding to somatostatin receptors, our results with natural somatostatin that binds to all 5 somatostatin receptors equally well assures us of the anti fibrotic capacities of this neuropeptide hormone, and points to its potential use in human conditions."}, "[10]": {"details": "acute (wk 10) infected mice, 1 day SOM treatment, one week post treatment, RIA, untreated 297.3 ± 37.24"}, "[11]": {"details": "acute (wk 10) infected mice, 2 day SOM treatment, one week post treatment, RIA, untreated 297.3 ± 37.24, p = 0.28"}, "[12]": {"details": "chronic (wk 14) infected mice, 1 day SOM treatment, one week post treatment, RIA, untreated 206.1 ± 13.30"}, "[13]": {"details": "chronic (wk 14) infected mice, 2 day SOM treatment, one week post treatment, RIA, untreated 206.1 ± 13.30, p = 0.06 (BL)"}, "[14]": {"details": "uninfected mice (17 wks.), 2 day SOM treatment, Group 1, RIA"}, "[15]": {"details": "uninfected mice (21 wks.), 2 day SOM treatment, Group 2, RIA"}}, "note": "Where two headings read alike, the source gives them in different places."}
{"compound": "C[C@H](N)C(=O)NCC(=O)N[C@H]1CSSC[C@@H](C(=O)O)NC(=O)[C@H](CO)NC(=O)[C@H]([C@@H](C)O)NC(=O)[C@H](Cc2ccccc2)NC(=O)[C@H]([C@@H](C)O)NC(=O)[C@H](CCCCN)NC(=O)[C@H](Cc2c[nH]c3ccccc23)NC(=O)[C@H](Cc2ccccc2)NC(=O)[C@H](Cc2ccccc2)NC(=O)[C@H](CC(N)=O)NC(=O)[C@H](CCCCN)NC1=O", "note": "[somatostatin]", "values": [{"measurement": "time to reach plasma plateau", "setting": "[1]; healthy volunteers, intravenous infusion 250 μg/hour or 6 mg/24 hours", "value": "≤ 15", "unit": "min"}, {"measurement": "plasma plateau level", "setting": "[1]; healthy volunteers, intravenous infusion of therapeutic dose (250 μg/hour or 6 mg/24 hours)", "value": "300 to 3000", "unit": "pg/mL"}, {"measurement": "half-life", "setting": "[1]; in man", "value": "1 to 3", "unit": "min"}, {"measurement": "level at 168 h", "setting": "[2]; [10]", "value": "0.24 ± 0.0213", "unit": "ng/mL"}, {"measurement": "level at 168 h", "setting": "[2]; [11]", "value": "0.234 ± 0.0236", "unit": "ng/mL"}, {"measurement": "level at 168 h", "setting": "[2]; [12]", "value": "0.226 ± 0.00541", "unit": "ng/mL"}, {"measurement": "level at 168 h", "setting": "[2]; [13]", "value": "0.248 ± 0.0131", "unit": "ng/mL"}, {"measurement": "level at 168 h", "setting": "[2]; [14]", "value": "0.137 ± 0.0117", "unit": "ng/mL"}, {"measurement": "level at 168 h", "setting": "[2]; [15]", "value": "0.152 ± 0.0415", "unit": "ng/mL"}, {"measurement": "level at 168 h", "setting": "[2]; uninfected mice, 1 day SOM treatment, Group 2, RIA", "value": "0.132 ± 0.0193", "unit": "ng/mL"}, {"measurement": "somatostatin level in plasma", "setting": "[2]; [10]", "value": 240.3, "unit": "pg/mL"}, {"measurement": "somatostatin level in plasma", "setting": "[2]; [11]", "value": 234.2, "unit": "pg/mL"}, {"measurement": "somatostatin level in plasma", "setting": "[2]; [12]", "value": 226.3, "unit": "pg/mL"}, {"measurement": "somatostatin level in plasma", "setting": "[2]; [13]", "value": 247.9, "unit": "pg/mL"}, {"measurement": "somatostatin level in plasma", "setting": "[2]; [14]", "value": 136.9, "unit": "pg/mL"}, {"measurement": "somatostatin level in plasma", "setting": "[2]; [15]", "value": 151.6, "unit": "pg/mL"}, {"measurement": "toxicity of somatostatin administration", "setting": "[3]", "value": "little toxicity"}, {"measurement": "LD50", "setting": "[4]", "value": "~10,000 times the acute therapeutic dose used in humans"}, {"measurement": "change in liver weight", "setting": "[5]; acute and chronic infected animals after 2 days of somatostatin treatment vs untreated, p = 0.19, 0.90", "value": "no significant change"}, {"measurement": "change in spleen weight", "setting": "[5]; acute and chronic infected animals after 2 days somatostatin treatment vs untreated, p = 0.28, 0.73", "value": "no significant changes"}, {"measurement": "change in total body weight", "setting": "[5]; acute or chronic infected animals after somatostatin treatment", "value": "no significant changes"}, {"measurement": "plasma profile / half-life compared with man", "setting": "[6]", "value": "same profile"}, {"measurement": "level at 10 min", "setting": "[7]; ip, 25 μg somatostatin per mouse intraperitoneally, read-out: circulating somatostatin level in plasma at 10 minutes post injection (IP)", "value": 30.2, "unit": "ng/mL"}, {"measurement": "level at 10 min", "setting": "[7]; iv, 25 μg somatostatin per mouse intravenously (caudal vein), read-out: circulating somatostatin level in plasma at 10 minutes post injection (IV)", "value": 17.4, "unit": "ng/mL"}, {"measurement": "circulating somatostatin level after one hour of injection", "setting": "[7]; 25 μg per mouse, IP or IV, one hour after injection", "value": "reaches baseline control levels"}, {"measurement": "time stable in whole blood", "setting": "[8]", "value": "up to 30 minutes"}]}
{"compound": "octreotide", "values": [{"measurement": "hepatic fibrosis", "setting": "[9]", "value": "reduction"}]}
